Source: patent publication US9796768B2, “Peptide inhibitors of sodium channels” (The University of North Carolina at Chapel Hill, priority 2014, dated 2017)
“Also recorded” adds a separate entry of the source. Like-named read-outs stand apart in the source and are kept apart here. Non-standard residues stand in square brackets, D forms with d. Residues, ends and D or L forms follow the SMILES beside them. No end group written: not given here. Nle = CCCC[C@H](N)C(=O)O

What was measured:
ENaC [1] = target: T1, ENaC (Homo sapiens, UniProt P51168); assay: Airway surface liquid (ASL) height in human bronchial epithelial cultures by XZ-confocal microscopy (ENaC-led fluid absorption); type: cell-based; conditions: for efficacy in ASL height dose response relative to S18: dose responses in airway cultures (FIGS. 3A-3B); for potency in ASL height dose response relative to S18: dose responses in airway cultures (FIGS. 3A-3B, 4); for activity on inhibition of ENaC / preservation of ASL height, compared with S18: peptides added mucosally to HBECs at 30 μM, ASL height measured 3 h later (FIG. 2)
T1 construct: endogenous in cells; host or cells: primary human bronchial epithelial cultures (HBECs) at air-liquid interface
Excerpt: Cells were harvested by enzymatic digestion from human bronchial tissue as previously described under a protocol approved by the UNC School of Medicine IRB (Tarran et al., J. Gen. Physiol. 127:591 (2006)). Human excess donor lungs and excised recipient lungs were obtained at the time of lung transplantation from portions of main stem or […] bronchi and cells were harvested by enzymatic digestion. All preparations were maintained at an air-liquid interface in a modified bronchial epithelial medium and used 2-5 weeks after seeding on 12 mm T-Clear inserts (Corning Costar) coated with human placental type VI collagen (Sigma). Phosphate buffered saline (PBS) was used for washing human bronchial epithelial culture mucosal surfaces.
To label airway surface liquid, Ringer containing Texas Red-dextran (2 mg/ml; Invitrogen) was added to human bronchial epithelial culture mucosal surfaces. Perfluorocarbon was added mucosally to prevent evaporation of the airway surface liquid and the culture placed in a chamber containing 100 μl Ringer on the stage of a Leica SP8 confocal microscope with a 63× glycerol immersion objective. 10 points per culture were scanned and an average airway surface liquid height determined. For confocal microscopy human bronchial epithelial cultures were bathed serosally in a modified Ringer solution containing (mM): 116 NaCl, 10 NaHCO3, 5.1 KCl, 1.2 CaCl2, 1.2 MgCl2, 20 TES, 10 glucose, pH 7.4). At all other times, human bronchial epithelial cultures were maintained in a modified BEGM growth medium which contained 24 mM NaHCO3 gassed with 5% CO2. Perfluorocarbon (FC-77) was obtained from 3M and had no effect on ASL height as previously reported.
D-alanines are noted as lowercase a. All n=6-9. Data are shown as mean±SEM.

Heat stability = type: physicochemical
ENaC [2] = target: T1, ENaC; conditions: previously demonstrated (Hobbs et al., 2013); cited from earlier work
βENaC-Tg mice = type: in vivo
Excerpt: Like CF patients, βENaC-Tg mice are disease free at birth, but soon develop obstructive lung disease (Zhou, Z., et al. Am J Respir Crit Care Med 178, 1245-1256 (2008)). C57BL:FVB and C57BL:C3H mixed strains have 90% and 50% mortality, respectively, and the reproducibility of the disease on these backgrounds is sufficiently high that reliable data are produced with n of about 8-10 animals/group. Furthermore, the βENaC-Tg mouse responds to therapeutic interventions in a fashion similar to CF/COPD in humans, and the development of lung disease can be prevented following inhibition of lung disease at birth (Livraghi, A., et al. J Immunol 182, 4357-4367 (2009)). S18-derived peptides or vehicle were dosed one to three times a day by intranasal instillation (1 μl/g body weight) for 14 days in parallel cohorts of mice. Mice were weighed daily and, if a diuretic effect was found, the volume excreted was replaced by sub-cutaneous injections of sterile saline. At the end of the treatment, mice were sacrificed for phenotypic analysis.

[3] = βENaC-Tg C57BL:C3H mice, fourteen-day treatment (FIGS. 7C, 7D, 7F)

T1 sequence (P37088 whole entry partner): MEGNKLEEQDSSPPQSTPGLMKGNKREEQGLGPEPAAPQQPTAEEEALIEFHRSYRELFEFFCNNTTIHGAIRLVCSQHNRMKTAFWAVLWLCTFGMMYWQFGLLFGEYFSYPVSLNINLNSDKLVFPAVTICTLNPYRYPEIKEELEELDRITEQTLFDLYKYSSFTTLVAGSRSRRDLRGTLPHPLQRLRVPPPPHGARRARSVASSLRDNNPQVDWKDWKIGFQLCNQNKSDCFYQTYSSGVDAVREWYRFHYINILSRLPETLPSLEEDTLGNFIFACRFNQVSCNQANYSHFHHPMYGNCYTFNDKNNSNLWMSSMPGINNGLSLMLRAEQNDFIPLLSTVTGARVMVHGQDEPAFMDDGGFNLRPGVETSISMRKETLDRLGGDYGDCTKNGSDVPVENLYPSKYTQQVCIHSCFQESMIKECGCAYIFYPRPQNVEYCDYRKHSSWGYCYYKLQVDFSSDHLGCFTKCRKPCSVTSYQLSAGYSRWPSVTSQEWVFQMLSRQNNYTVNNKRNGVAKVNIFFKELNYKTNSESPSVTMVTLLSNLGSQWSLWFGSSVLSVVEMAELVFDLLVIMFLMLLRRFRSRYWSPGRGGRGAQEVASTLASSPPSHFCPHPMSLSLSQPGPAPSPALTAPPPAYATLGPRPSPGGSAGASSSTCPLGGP
T1 sequence (P51168 whole entry): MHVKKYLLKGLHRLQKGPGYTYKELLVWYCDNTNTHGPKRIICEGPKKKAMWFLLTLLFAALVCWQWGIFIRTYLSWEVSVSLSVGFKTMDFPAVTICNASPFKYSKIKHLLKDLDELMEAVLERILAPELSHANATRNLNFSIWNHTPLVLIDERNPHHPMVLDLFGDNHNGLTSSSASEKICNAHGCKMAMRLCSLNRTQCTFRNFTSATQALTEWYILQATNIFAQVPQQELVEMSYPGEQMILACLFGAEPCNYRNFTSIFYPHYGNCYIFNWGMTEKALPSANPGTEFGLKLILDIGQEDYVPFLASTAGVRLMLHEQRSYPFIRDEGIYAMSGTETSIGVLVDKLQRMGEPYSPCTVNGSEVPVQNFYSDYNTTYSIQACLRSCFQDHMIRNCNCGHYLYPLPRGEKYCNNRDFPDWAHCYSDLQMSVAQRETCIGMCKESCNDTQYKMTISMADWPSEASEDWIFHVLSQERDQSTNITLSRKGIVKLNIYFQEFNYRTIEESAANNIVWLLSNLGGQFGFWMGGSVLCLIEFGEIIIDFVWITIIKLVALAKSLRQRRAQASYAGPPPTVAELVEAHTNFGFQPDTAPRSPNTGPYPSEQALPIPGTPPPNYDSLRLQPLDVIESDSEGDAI
T1 sequence (P51170 whole entry partner): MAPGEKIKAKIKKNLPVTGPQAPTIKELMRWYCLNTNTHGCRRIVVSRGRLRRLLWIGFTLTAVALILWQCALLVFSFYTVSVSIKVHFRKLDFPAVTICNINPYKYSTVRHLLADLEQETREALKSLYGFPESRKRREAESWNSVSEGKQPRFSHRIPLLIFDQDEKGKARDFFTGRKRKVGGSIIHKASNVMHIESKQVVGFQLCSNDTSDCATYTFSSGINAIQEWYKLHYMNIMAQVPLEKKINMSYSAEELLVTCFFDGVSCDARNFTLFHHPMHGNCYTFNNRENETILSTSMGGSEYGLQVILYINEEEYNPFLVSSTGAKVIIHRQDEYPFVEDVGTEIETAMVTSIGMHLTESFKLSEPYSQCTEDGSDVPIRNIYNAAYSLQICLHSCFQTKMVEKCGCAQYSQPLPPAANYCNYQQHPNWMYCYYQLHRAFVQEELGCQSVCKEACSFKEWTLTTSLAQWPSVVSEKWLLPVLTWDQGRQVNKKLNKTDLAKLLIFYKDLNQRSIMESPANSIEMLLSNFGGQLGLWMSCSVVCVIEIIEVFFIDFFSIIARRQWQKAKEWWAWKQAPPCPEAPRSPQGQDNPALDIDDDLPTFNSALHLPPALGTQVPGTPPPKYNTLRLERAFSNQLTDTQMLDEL

Compound: aaLPVPLDQTLPLNVNPaa ([dA][dA]LPVPLDQTLPLNVNP[dA][dA]-NH2; N-terminus assumed; SMILES CC(C)C[C@H](NC(=O)[C@@H]1CCCN1C(=O)[C@H](CC(C)C)NC(=O)[C@@H](NC(=O)[C@H](CCC(N)=O)NC(=O)[C@H](CC(=O)O)NC(=O)[C@H](CC(C)C)NC(=O)[C@@H]1CCCN1C(=O)[C@@H](NC(=O)[C@@H]1CCCN1C(=O)[C@H](CC(C)C)NC(=O)[C@@H](C)NC(=O)[C@@H](C)N)C(C)C)[C@@H](C)O)C(=O)N[C@@H](CC(N)=O)C(=O)N[C@H](C(=O)N[C@@H](CC(N)=O)C(=O)N1CCC[C@H]1C(=O)N[C@H](C)C(=O)N[C@H](C)C(N)=O)C(C)C) [SEQ ID NO:2, a = D-alanine]
- efficacy in ASL height dose response relative to S18 (ENaC [1]): equal potency and efficacy
- potency in ASL height dose response relative to S18 (ENaC [1]): equal potency

Compound: CCCC[C@H](NC(=O)[C@@H]1CCCN1C(=O)[C@H](CC(C)C)NC(=O)[C@@H](C)NC(=O)[C@@H](C)N)C(=O)N1CCC[C@H]1C(=O)N[C@@H](CC(C)C)C(=O)N[C@@H](CC(=O)O)C(=O)N[C@@H](CCC(N)=O)C(=O)N[C@H](C(=O)N[C@H](C)C(=O)N[C@H](C)C(N)=O)[C@@H](C)O [SEQ ID NO:5, aaLPNlePLDQTaa] (H-[dA][dA]LP[Nle]PLDQT[dA][dA]-NH2; N-terminus assumed)
- IC50 (ENaC [1]; additional dose response, fresh batch of airway cells (FIG. 4)): 0.03 µM
- potency in ASL height dose response relative to S18 (ENaC [1]): log-fold increase in potency; also recorded: significant increase in potency; also recorded: increased potency

Compound: aaLPVPLDQTaa ([dA][dA]LPVPLDQT[dA][dA]-NH2; N-terminus assumed; SMILES CC(C)C[C@H](NC(=O)[C@@H]1CCCN1C(=O)[C@@H](NC(=O)[C@@H]1CCCN1C(=O)[C@H](CC(C)C)NC(=O)[C@@H](C)NC(=O)[C@@H](C)N)C(C)C)C(=O)N[C@@H](CC(=O)O)C(=O)N[C@@H](CCC(N)=O)C(=O)N[C@H](C(=O)N[C@H](C)C(=O)N[C@H](C)C(N)=O)[C@@H](C)O) [SEQ ID NO:3, a = D-alanine]
- efficacy in ASL height dose response relative to S18 (ENaC [1]): did not affect its potency or efficacy; also recorded: equal potency and efficacy
- potency in ASL height dose response relative to S18 (ENaC [1]): identical dose responses; also recorded: equal potency

Compound: H-GGLPVPLDQTLPLNVNPA-NH2 [S18]
- heat stability (Heat stability): heat-stable
- EC50 of ENaC inhibition (ENaC [2]): sub micromolar range
- duration of ENaC inhibition following a single dose (ENaC [2]): up to 24 h

Compound: aaLPVPLDQSaa ([dA][dA]LPVPLDQS[dA][dA]-NH2; N-terminus assumed; SMILES CC(C)C[C@H](NC(=O)[C@@H]1CCCN1C(=O)[C@@H](NC(=O)[C@@H]1CCCN1C(=O)[C@H](CC(C)C)NC(=O)[C@@H](C)NC(=O)[C@@H](C)N)C(C)C)C(=O)N[C@@H](CC(=O)O)C(=O)N[C@@H](CCC(N)=O)C(=O)N[C@@H](CO)C(=O)N[C@H](C)C(=O)N[C@H](C)C(N)=O) [SEQ ID NO:9, a = D-alanine]
- potency in ASL height dose response relative to S18 (ENaC [1]): diminished potency

Compound: aaLPVPNleDQTaa [SEQ ID NO:6]
- efficacy in ASL height dose response relative to S18 (ENaC [1]): diminished

Compound: CC[C@H](C)[C@H](NC(=O)[C@@H]1CCCN1C(=O)[C@H](CC(C)C)NC(=O)[C@@H](C)NC(=O)[C@@H](C)N)C(=O)N1CCC[C@H]1C(=O)N[C@@H](CC(C)C)C(=O)N[C@@H](CC(=O)O)C(=O)N[C@@H](CCC(N)=O)C(=O)N[C@H](C(=O)N[C@H](C)C(=O)N[C@H](C)C(N)=O)[C@@H](C)O [SEQ ID NO:128, aaLPIPLDQTaa] (H-[dA][dA]LPIPLDQT[dA][dA]-NH2)
- percent survival (βENaC-Tg mice; [3]): increased percent survival
- percent survival (βENaC-Tg mice; βENaC-Tg C57BL:C3H mice, once daily dosing (FIG. 7E left panel)): increased percent survival
- percent survival (βENaC-Tg mice; βENaC-Tg C57BL:FVB mice, fourteen-day treatment, inhaled (FIG. 7B)): more effective than inhaled SEQ ID NO:142

Compound: H-LPVPLDQT-NH2 [SEQ ID NO:113, LPVPLDQT]
- activity on inhibition of ENaC / preservation of ASL height, compared with S18 (ENaC [1]): retained similar activity to 518; also recorded: required for inhibition of ENaC and preservation of ASL height

Compound: SEQ ID NO:127: NH3-L-P-I-P-L-D-Q-T-NH2 (H-LPIPLDQT-NH2)
- percent survival (βENaC-Tg mice; [3]): increased percent survival

Compound: DQTLPLNVNP (also: C-terminal amide, amidation at residue 8) [SEQ ID NO:114]
- activity on inhibition of ENaC / preservation of ASL height, compared with S18 (ENaC [1]): inactive
